{"source": "patent US20040223977A1", "about": "“Fusion peptide HIV vaccines” (City of Hope, priority 2003, published 2004)", "key": {"[1]": {"test_system": "naïve HLA A2/K^b splenocytes", "assay": "Lymphocyte proliferation assay (3H-thymidine incorporation)", "type": "cell-based, transgenic HLA A2/K^b mice", "conditions": "48 hours culture, up to 1.6 μM ODN", "protocol": "A naïve transgenic A2/K^b spleen cell suspension was prepared as described for immunized splenocytes in Example 4. Following the removal of erythrocytes using red cell lysis buffer (0.15 M NH4Cl, 1 mM KHCO3, 0.1 mM Na2EDTA in distilled H2O) and subsequent washing, the concentration was adjusted to 4×10^6 cells/ml in complete in vitro stimulation (IVS) medium. One hundred microliters of splenocyte suspension was plated onto 96 well U-bottomed plate along with 100 μl of serially diluted CpG DNA in serum-free IVS medium. Concanavalin A (Sigma, St. Louis, Mo.) at a concentration of 5 μg/ml and unstimulated splenocytes were used as positive and negative controls respectively. […] Levels of TdR uptake were determined by liquid scintillation using a TriLux counter (Wallac, […]). Results were expressed as a stimulation index (SI) compared to unstimulated splenocytes.\nIn vitro analysis of the proliferative effect of two synthetic ODNs was conducted using naïve HLA A2/K^b splenocytes. […] Proliferative responses were determined by ^3H-thymidine incorporation using naïve transgenic A2/K^b splenocytes cultured with immunostimulatory ODN 1826 (SEQ ID NO:5; black bar) or control ODN sequence 1984 (SEQ ID NO:6; white bar) for 48 hours. […]"}, "[2]": {"test_system": "IV9 peptide-loaded T2 cells"}, "[3]": {"test_system": "T2 target cells pulsed with SEQ ID NO:10", "assay": "Chromium release assay after immunization with SEQ ID NO:11, T2 targets pulsed with SEQ ID NO:10", "type": "in vivo, HLA A2.1/Kb transgenic mice"}}, "note": "Square brackets hold non-standard residues; d marks the D form. Peptide text beside a SMILES is read from it. Cha = N[C@@H](CC1CCCCC1)C(=O)O", "data": [{"compound": "5′ TCCAGGACTTCTCTCAGGTT 3′ (chemistry not given here) [ODN 1984]", "values": [{"measurement": "proliferative response (stimulation index)", "setting": "[1]", "result": "little or no proliferation"}]}, {"compound": "5′ TCCATGACGTTCCTGACGTT 3′ [ODN 1826]", "values": [{"measurement": "proliferative response (stimulation index)", "setting": "[1]", "result": "potent generalized proliferative response"}, {"measurement": "amount of CpG DNA per dose capable of augmenting the CTL response", "setting": "[2]; co-administered with fusion peptide (50 nmoles PADRE-IV9 elsewhere in the source), s.c., saline", "result": "≤ 1", "unit": "µg"}, {"measurement": "plateau of CTL response", "setting": "[2]; with 50 nmoles PADRE-IV9, E:T of 6, up to 25 μg CpG DNA", "result": "no clear plateau"}]}, {"compound": "CC[C@H](C)[C@H](NC(=O)[C@H](C)NC(=O)[C@H](C)NC(=O)[C@H](C)NC(=O)[C@H](CCCCN)NC(=O)[C@H](CC(C)C)NC(=O)[C@@H](NC(=O)[C@H](Cc1c[nH]c2ccccc12)NC(=O)[C@H](C)NC(=O)[C@H](C)NC(=O)[C@@H](NC(=O)[C@H](CC1CCCCC1)NC(=O)[C@H](CCCCN)NC(=O)[C@H](C)N)C(C)C)[C@@H](C)O)C(=O)N[C@@H](CC(C)C)C(=O)N[C@@H](CCCCN)C(=O)N[C@@H](CCC(=O)O)C(=O)N1CCC[C@H]1C(=O)N[C@H](C(=O)N[C@@H](Cc1c[nH]cn1)C(=O)NCC(=O)N[C@H](C(=O)O)C(C)C)C(C)C", "note": "[PADRE-IV9, AKXVAAWTLKAAAILKEPVHGV] (H-AK[Cha]VAAWTLKAAAILKEPVHGV-OH)", "values": [{"measurement": "cytotoxicity", "setting": "[2]; between 10-15 nmoles of peptide, E:T ratio of 25", "result": "approximately 15%"}]}, {"compound": "KSSAKXVAAWTLKAAASLYNTVATL [SEQ ID NO:11, PADRE-Gag77-85 fusion peptide]", "values": [{"measurement": "specific recognition (non-specific recognition subtracted)", "setting": "[3]; 25 nmoles with 25 μg ODN 1826 s.c., E:T 4", "result": 41, "unit": "%"}, {"measurement": "specific recognition (non-specific recognition subtracted)", "setting": "[3]; 25 nmoles with 25 μg ODN 1826 s.c., E:T 20", "result": 62, "unit": "%"}, {"measurement": "specific recognition (non-specific recognition subtracted)", "setting": "[3]; 25 nmoles with 25 μg ODN 1826 s.c., E:T 100", "result": 49, "unit": "%"}, {"measurement": "specific recognition (non-specific recognition subtracted)", "setting": "[3]; 50 nmoles with 25 μg ODN 1826 s.c., E:T 4", "result": 9.3, "unit": "%"}, {"measurement": "specific recognition (non-specific recognition subtracted)", "setting": "[3]; 50 nmoles with 25 μg ODN 1826 s.c., E:T 20", "result": 30, "unit": "%"}, {"measurement": "specific recognition (non-specific recognition subtracted)", "setting": "[3]; 50 nmoles with 25 μg ODN 1826 s.c., E:T 100", "result": 33, "unit": "%"}]}]}
